PubChem BioAssay (NCI)
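1) Cells in 96-well plates. 2) Compound, 48 h, 5 concentrations. 3) Linear interpolation between surrounding doses. 4) Unreached endpoint = highest concentration. At the TGI there is no net growth.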 Peptide text beside a SMILES is read from it. * marks the point of attachment. X26 = Clc1c(Cl)c(Cl)c(O*)c(Cl)c1Cl; Boc = CC(C)(C)OC(=O)*; OBn = c1ccc(CO*)cc1; Bn = c1ccc(C*)cc1

Columns and labels:
Test in all cases: NCI anticancer screen, dose series, 48 h
MOLT-4 leukemia = system: MOLT-4 leukemia
UACC-62 melanoma = system: UACC-62 melanoma
A498 renal = system: A498 renal
SF-295 CNS = system: SF-295 CNS
COLO 205 colon = system: COLO 205 colon
NCI-H23 lung = system: NCI-H23 lung
BT-549 breast = system: BT-549 breast
SR leukemia = system: SR leukemia
SW-620 colon = system: SW-620 colon
DU-145 prostate = system: DU-145 prostate

Row | SMILES | TGI (MOLT-4 leukemia) [µM] | TGI (UACC-62 melanoma) [µM] | TGI (A498 renal) [µM] | TGI (SF-295 CNS) [µM] | TGI (COLO 205 colon) [µM] | TGI (NCI-H23 lung) [µM] | TGI (BT-549 breast) [µM] | TGI (SR leukemia) [µM] | TGI (SW-620 colon) [µM] | TGI (DU-145 prostate) [µM]
1 | CC[N+]1(C)CCC(O)(c2ccc(C)cc2)C(C(=O)c2ccc(C)cc2)C1 (centres undefined) | 48.1 | > 100 | > 100 | > 100 | 55.7 | > 100 | > 100 | 39.6 | 39.3 | > 100
2 | CCN(CC)c1ccc(NC(=S)NN(C)C)cc1 | > 10 | > 10 | > 10 | > 10 | > 10 | > 10 | – | > 10 | > 10 | > 10
3 | CCCCCCc1cc2cc(-c3csc(-c4ccc(OC)cc4)n3)c(=O)oc2cc1O | > 100 | 24.6 | – | 28.5 | > 100 | – | 7.38 | > 100 | 34.3 | 33.6
4 | CCCCN1C(=O)CC2[C@@H]3CCc4cc(OC)ccc4C3CC[C@]2(C)C1=O (some centres undefined) | > 10 | > 10 | > 10 | > 10 | > 10 | > 10 | > 10 | > 10 | > 10 | > 10
5 | CC1(C)OC[C@@H](C[C@H](O)COCc2ccccc2)O1 | > 100 | > 100 | > 100 | > 100 | > 100 | > 100 | > 100 | > 100 | > 100 | > 100
6 | COc1ccc(C2=C(Cl)C(=O)O/C2=C\c2ccc(OC)c(Br)c2)cc1Cl | > 100 | 74.9 | 52.9 | 35.1 | > 100 | 32 | – | > 100 | > 100 | > 100
7 | N#Cc1nc(CCCN2C(=O)c3ccccc3C2=O)oc1N | > 100 | – | – | > 100 | > 100 | > 100 | > 100 | > 100 | > 100 | > 100
8 | NC(Cc1[nH]nc2ccccc12)C(=O)O (centres undefined) | > 100 | > 100 | > 100 | > 100 | > 100 | > 100 | > 100 | > 100 | > 100 | > 100
9 | Cc1nnc2n1-c1ccccc1N(Cc1ccccc1)CC2 | 89.5 | > 100 | > 100 | > 100 | > 100 | > 100 | 76.2 | > 100 | > 100 | > 100
10 | NCCN(CCN(C(=O)Nc1ccccc1)c1ccccc1)C(=O)Nc1ccccc1 | > 100 | 35.3 | 40.5 | 36.4 | 67.4 | 63 | 69.4 | > 100 | 48.3 | 40.1
11 | Nc1nncc2[nH]cnc12 | > 45.3 | > 100 | > 100 | > 100 | > 60.9 | – | 77.4 | > 100 | > 100 | > 100
12 | Clc1ccc(OCc2nnc(COc3ccc(OCc4nnc(COc5ccc(Cl)cc5Cl)o4)c(Cl)c3)o2)c(Cl)c1 | – | > 100 | > 100 | > 100 | 74.9 | > 100 | > 100 | 36.6 | > 100 | > 100
13 | NCCCCNCCCNC(=O)CNC(=O)CC(O)C(N)CCCC(NC(=O)C(CN)NC(=O)C(O)CNC(=O)CC(N)c1ccc(O)cc1)C(=O)O (centres undefined) | > 10 | > 10 | > 10 | > 10 | > 10 | > 10 | > 10 | > 10 | – | > 10
14 | Cc1ccc(C(=O)Cc2nc3c([nH]c2=O)c(C)nn3-c2ccccc2)c(C)c1 | > 10 | > 10 | – | > 10 | > 10 | > 10 | > 10 | > 10 | > 10 | > 10
15 | Cc1cc(OCc2nnc3sc(NC(=O)c4ccccc4)nn23)ccc1Cl | > 100 | > 100 | > 100 | > 100 | > 100 | 82.2 | > 100 | – | > 100 | 58.4
16 | c1c(N2CCOCC2)ssc1=[N+]1CCOCC1 | > 100 | > 100 | > 100 | > 100 | – | > 100 | – | > 100 | > 100 | –
17 | CC(C)CC(NC(=O)C(CCC(=O)OCc1ccccc1)NC(=O)OC(C)(C)C)C(=O)NC(COCc1ccccc1)C(=O)NC(Cc1ccccc1)C(=O)Oc1c(Cl)c(Cl)c(Cl)c(Cl)c1Cl (centres undefined) (Boc-E(OBn)LS(Bn)F-X26; configuration not given here) | 54.1 | 44.4 | – | 68.1 | 58.5 | 34.2 | – | 97.9 | > 100 | > 100
18 | Cc1ccc(S(=O)(=O)c2c(O)c3ccc(O)c(C)c3oc2=O)cc1 | > 100 | > 100 | – | > 100 | > 100 | > 100 | > 100 | > 100 | > 100 | > 100
19 | Cc1nc(SCC(N)=O)c2sc(=S)n(-c3ccccc3)c2n1 | > 10 | > 10 | > 10 | > 10 | > 10 | > 10 | – | > 10 | > 10 | > 10
20 | CN(C)CCCNc1cc(O)c2c(c1O)C(=O)c1ccccc1C2=O | – | 35.3 | 37 | 25.9 | 24.5 | 27.9 | 34.2 | 15.9 | 21.7 | 28
21 | N#Cc1ccc(-c2nc(C#N)c(N)o2)cc1 | > 10 | > 10 | – | > 10 | > 10 | > 10 | > 10 | > 10 | > 10 | > 10
22 | CC1(C)N=C(N)N=C(N)N1c1cccc(OCc2cccc(N)c2)c1 | > 100 | > 100 | > 100 | > 100 | > 100 | > 100 | > 100 | – | > 100 | > 100
